Measurements taken from the supplement of paper PMC13380429.

Tests used:
Details in all cases: 72 h
[1] = test system: Vero E6; experiment: cell viability relative to DMSO; higher = less toxic
[2] = test system: U2OS; experiment: as above
[3] = test system: HepG2; experiment: as above
[4] = test system: Calu-3; experiment: as above
[5] = test system: Caco-2; experiment: as above
[6] = test system: Vero E6; experiment: relative viability EC50 (midpoint between 100% and the lowest measured viability); higher = less toxic
[7] = test system: U2OS; experiment: as above
[8] = test system: Calu-3; experiment: as above
[9] = test system: Vero E6; experiment: drug sensitivity score (DSS) for viability; higher = more toxic; extreme values may be limits of the assay
[10] = test system: U2OS; experiment: as above
[11] = test system: HepG2; experiment: as above
[12] = test system: Calu-3; experiment: as above
[13] = test system: Caco-2; experiment: as above
[14] = test system: HepG2; experiment: relative viability EC50 (midpoint between 100% and the lowest measured viability); higher = less toxic
[15] = test system: Caco-2; experiment: as above

SMILES	cell viability ([1]; 1 nM) [%]	cell viability ([1]; 10 nM) [%]	cell viability ([1]; 100 nM) [%]	cell viability ([1]; 1000 nM) [%]	cell viability ([1]; 10000 nM) [%]	cell viability ([2]; 1 nM) [%]	cell viability ([2]; 10 nM) [%]	cell viability ([2]; 100 nM) [%]	cell viability ([2]; 1000 nM) [%]	cell viability ([2]; 10000 nM) [%]	cell viability ([3]; 1 nM) [%]	cell viability ([3]; 10 nM) [%]	cell viability ([3]; 100 nM) [%]	cell viability ([3]; 1000 nM) [%]	cell viability ([3]; 10000 nM) [%]	cell viability ([4]; 1 nM) [%]	cell viability ([4]; 10 nM) [%]	cell viability ([4]; 100 nM) [%]	cell viability ([4]; 1000 nM) [%]	cell viability ([4]; 10000 nM) [%]	cell viability ([5]; 1 nM) [%]	cell viability ([5]; 10 nM) [%]	cell viability ([5]; 100 nM) [%]	cell viability ([5]; 1000 nM) [%]	cell viability ([5]; 10000 nM) [%]	relative viability EC50 [6] [µM]	relative viability EC50 [7] [µM]	relative viability EC50 [8] [µM]	drug sensitivity score [9]	drug sensitivity score [10]	drug sensitivity score [11]	drug sensitivity score [12]	drug sensitivity score [13]	relative viability EC50 [14] [µM]	relative viability EC50 [15] [µM]
CNC(=O)c1c(F)cccc1Nc1nc(Nc2cc3c(cc2OC)CCN3C(=O)CN(C)C)nc2[nH]ccc12	101	97	94.1	93.4	101	97.7	98.9	100	87.9	78.5	100	101	77.3	53	56.5	99.4	104	103	95.1	91.3	103	93.4	92.3	85.7	52.8	> 10	> 10	> 10	0	2	11.5	0	4.1		
CC(=O)Oc1ccccc1C(=O)Oc1cccc(CO[N+](=O)[O-])c1 [NO-ASA]	102	108	101	89.7	105	98	98.5	99.4	101	93.1	95.4	104	100	88.9	79.9	96.3	101	98.9	103	107						> 10	> 10	> 10	0	0	1.7	0		> 10	
Cc1cc(CN2CCN(c3c(Br)cnc4nc(-c5ccc(N6CCN(C)CC6)cc5)[nH]c34)CC2)no1	96	96.6	94.1	83.6	84.2	98.7	106	98.1	102	74.8	101	98	106	65.6	59.9	97.8	103	94.2	114	105	101	99.3	99.7	96.8	84.7	> 10		> 10	1.5	0.8	6	0	0.6		> 10
C[C@@H]1CCC[C@H](C)N1NC(=O)c1ccc(Cl)c(S(N)(=O)=O)c1 [clopamide]	99.4	102	104	99.4	105											102	106	104	104	95.1	94.5	104	110	105	104	> 10		> 10	0			0	0		> 10
Cc1nn(C)c2nc(NNC(=O)Nc3cc(Cl)nc(Cl)c3)cc(C(C)C)c12 [JTE-013]	99.1	105	95.7	100	93.9	107	100	99.4	93.6	92.9	97.8	93.1	104	95.6	74.2	101	101	97.5	110	92	96.7	100	105	100	82.4	> 10	> 10	> 10	0	0	1.7	0	0.4		> 10
c1ccc2[nH]c(-c3cscn3)nc2c1 [tiabendazole]	93.2	96.8	102	96.3	106						116	104	102	97.2	106	105	102	103	97.8	110						> 10		> 10	0		0	0		> 10	
COc1ccc(-n2[nH]c3c4c(ncc3c2=O)CCCCC4)cc1	102	105	100	98.2	99.6	96.4	100	94.2	103	95.9						110	98.7	99.8	97.2	112	99.9	107	95.7	107	94.2	> 10	> 10	> 10	0	0		0	0		> 10
Cc1cccc(Nc2ccncc2S(=O)(=O)NC(=O)NC(C)C)c1 [torasemide]	105	101	102	99.2	103											100	100	96.5	110	85.6	102	112	96.7	103	96.2	> 10		> 10	0			0.1	0		> 10
Cc1ccc(S(=O)(=O)Nc2ccc3c(c2)c(C(=O)C(F)(F)F)cn3CC(=O)N[C@@H](CC(C)C)C(=O)O)cc1 [NTRC-824]	96.9	98.1	100	94.7	95.4	102	109	102	102	95.3						88.4	101	94.2	102	93.5	94.7	103	95	102	89.7	> 10	> 10	> 10	0	0		0	0		> 10
Oc1cccc(-c2c3nc(c(-c4cccc(O)c4)c4ccc([nH]4)c(-c4cccc(O)c4)c4nc(c(-c5cccc(O)c5)c5ccc2[nH]5)CC4)C=C3)c1 [temoporfin]	99.3	100	98.1	90.5	77.6	100	104	96.6	98.9	64.7	104	105	103	106	86.4	90	96.7	104	102	91.6	96.2	102	94.3	94.4	61.4	> 10		> 10	1.5	1.8	0.1	0	2.8	> 10	
COc1ccccc1N1CCN(CCN(C(=O)C2CCCCC2)c2ccccn2)CC1	104	102	104	97.2	99.1	95.6	99.6	102	100	95.5						93.6	86.7	99	92.2	84.3	99.1	101	93.5	102	94	> 10	> 10	> 10	0	0		0	0		> 10
CC(C)(Sc1cc(C(C)(C)C)c(O)c(C(C)(C)C)c1)Sc1cc(C(C)(C)C)c(O)c(C(C)(C)C)c1 [probucol]	100	101	106	98.1	97.8	104	96.1	101	96.2	98.7						98.6	106	99.9	103	96	104	96.3	106	102	102	> 10	> 10	> 10	0	0		0	0		> 10
COc1cccc(-c2cc(=O)c3ccccc3o2)c1N	109	108	105	104	92	99.5	97.7	98.7	101	92	99.7	87.8	94.1	91.8	64.2	107	103	103	106	83.7	98.5	108	92.7	95.9	91.4	> 10	> 10	> 10	0	0	2.9	0.2	0		> 10
Cc1ccsc1/C=C/C1=NCCCN1C [morantel]	108	104	110	101	96.8	98.2	104	97.2	100	96.9						94.5	111	91.1	101	96.9	94.6	86	72.7	94.6	84.2	> 10	> 10	> 10	0	0		0	0		> 10
N#Cc1ccc(C(c2ccc(C#N)cc2)n2cncn2)cc1 [letrozole]	106	106	114	99.9	105	104	105	99.6	107	101						97.1	101	101	99.1	99	106	107	96.2	105	97.3	> 10	> 10	> 10	0	0		0	0		> 10
c1ccc(N2CCN(CCCOc3ccc4c(c3)OCO4)CC2)cc1 [BP-554]	94.5	94.6	94.7	96.2	96						107	93.1	95.3	102	103	101	107	99.5	103	110	107	102	101	105	98.7	> 10		> 10	0		0	0	0	> 10	> 10
